Experimental data as given in patent publication US20230295157A1, “3-(1H-IMIDAZOL-2-YL)-2,3,8,8A-TETRAHYDROINDOLIZIN-5(1H)-ONE DERIVATIVES USEFUL AS FACTOR XIA INHIBITORS” (JANSSEN PHARMACEUTICA NV, priority 2020, published 2023).
Where two headings read alike, the source gives them in different places.

Columns and labels:
Factor XIa = Factor XIa (Homo sapiens (Human), UniProt P03951); assay: Factor XIa inhibition assay (FLINT) utilizing a fluorophore-quencher pair peptide substrate; type: biochemical; conditions: 30 min preincubation, read-out: FXIa Kin Inh IC50
Sequence of Factor XIa (P03951 388-625): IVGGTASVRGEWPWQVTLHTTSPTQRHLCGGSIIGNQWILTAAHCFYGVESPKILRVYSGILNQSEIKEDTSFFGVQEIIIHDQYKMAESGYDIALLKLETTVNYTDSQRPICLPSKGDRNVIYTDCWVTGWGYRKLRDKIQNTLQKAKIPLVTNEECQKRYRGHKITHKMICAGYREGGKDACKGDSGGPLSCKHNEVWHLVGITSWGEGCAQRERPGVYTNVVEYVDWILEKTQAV
Sequence of Factor XIa (P03951 19-387 partner): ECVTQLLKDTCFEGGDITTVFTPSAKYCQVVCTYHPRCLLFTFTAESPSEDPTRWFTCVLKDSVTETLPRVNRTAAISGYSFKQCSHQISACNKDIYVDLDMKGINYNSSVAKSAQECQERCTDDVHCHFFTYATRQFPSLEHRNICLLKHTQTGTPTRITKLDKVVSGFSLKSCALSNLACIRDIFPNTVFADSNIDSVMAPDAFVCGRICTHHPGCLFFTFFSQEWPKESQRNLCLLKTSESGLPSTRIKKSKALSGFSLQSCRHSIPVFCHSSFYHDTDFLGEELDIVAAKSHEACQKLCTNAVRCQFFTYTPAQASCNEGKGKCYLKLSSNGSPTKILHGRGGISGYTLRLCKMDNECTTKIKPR
In short: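 FXIa ([…]) preincubated 30 min with compound (11-point 3-fold dilution, top 100 nM, 2% DMSO), then 15 μM quenched FXI Arg146-based peptide added; Tris pH 7.5, CaCl2, BSA, CHAPS. Fluorescence 485/520 nm read kinetically every 5 min over 30 min at RT; IC50 by 4-parameter fit.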

human plasma kallikrein = human plasma kallikrein (Homo sapiens (Human), UniProt P03952); assay: Kallikrein inhibition assay (FLINT) utilizing a quenched AMC peptide substrate; type: biochemical; conditions: 30 min preincubation, read-out: Kallikrein Kin Inh IC50
Sequence of human plasma kallikrein (P03952 391-638): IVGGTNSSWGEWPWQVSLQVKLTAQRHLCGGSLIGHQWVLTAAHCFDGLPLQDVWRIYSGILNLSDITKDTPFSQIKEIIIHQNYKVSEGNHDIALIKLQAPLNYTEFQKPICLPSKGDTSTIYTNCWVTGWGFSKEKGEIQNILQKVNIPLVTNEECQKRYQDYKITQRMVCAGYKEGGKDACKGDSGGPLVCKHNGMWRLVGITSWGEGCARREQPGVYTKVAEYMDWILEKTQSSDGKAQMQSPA
Sequence of human plasma kallikrein (P03952 20-390 partner): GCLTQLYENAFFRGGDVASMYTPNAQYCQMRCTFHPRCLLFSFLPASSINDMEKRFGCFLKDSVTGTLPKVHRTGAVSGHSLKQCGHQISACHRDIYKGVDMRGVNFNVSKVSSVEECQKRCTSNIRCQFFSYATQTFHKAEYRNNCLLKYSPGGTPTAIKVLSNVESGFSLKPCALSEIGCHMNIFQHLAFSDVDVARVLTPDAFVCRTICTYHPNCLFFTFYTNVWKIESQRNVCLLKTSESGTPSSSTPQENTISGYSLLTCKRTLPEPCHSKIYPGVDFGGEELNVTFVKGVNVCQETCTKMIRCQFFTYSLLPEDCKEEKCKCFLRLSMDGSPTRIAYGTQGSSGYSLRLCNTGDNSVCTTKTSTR
In short: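 Enzyme (2 nM final) pre-incubated 30 min at room temperature with compound (11-point, 3-fold, top 1 μM, 2% DMSO), then 50 μM Z-Gly-Pro-Arg-AMC added in Tris pH 7.5 buffer. Kinetic fluorescence 340/440 nm every 5 min over 30 min; IC50 from 4-parameter logistic fit.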

[1] = kinetic reads over 30 min, 5Fam-[…]-K5Tamra substrate 15 μM
[2] = kinetic reads over 30 min, Z-Gly-Pro-Arg-AMC substrate 50 μM
[3] = kinetic reads over 30 min, 5Fam-KLTRAETV-K5Tamra substrate 15 μM

SMILES	IC50 (Factor XIa; [1]) [µM]	IC50 (human plasma kallikrein; [2]) [µM]	IC50 (Factor XIa; [3]) [µM]	IC50 (Factor XIa; μM, kinetic reads) [µM]	IC50 (human plasma kallikrein; μM, kinetic reads) [µM]
[2H]c1c(NC)nc(F)c(-c2cnc([C@H]3CC[C@@H]4CC(c5c(-n6cnnn6)ccc(Cl)c5F)=CC(=O)N43)[nH]2)c1[2H] (relative stereo) [Example 133, (3R*,8aR)-7-(3-chloro-2-fluoro-6-(1H-tetrazol-1-yl)phenyl)-3-(5-(2-fluoro-6-(methylamino)pyridin-3-yl-4,5-d2)-1H-imidazol-2-yl)-2,3,8,8a-tetrahydroindolizin-5(1H)-one]	0.0007	0.0075	–	–	–
O=C(Nc1cnccc1-c1c[nH]c([C@@H]2CC[C@@H]3CC(c4c(-n5cnnn5)ccc(Cl)c4F)=CC(=O)N32)n1)C1CC1 (relative stereo) [Example 249, N-(4-(2-((3S,8a*R)-7-(3-Chloro-2-fluoro-6-(1H-tetrazol-1-yl)phenyl)-5-oxo-1,2,3,5,8,8a-hexahydroindolizin-3-yl)-1H-imidazol-4-yl)pyridin-3-yl)cyclopropanecarboxamide]	0.0002	0.0004	–	–	–
O=C1C=C(c2c(-n3cnnn3)ccc(Cl)c2F)CC2CC[C@@H](c3ncc(-c4ccc5[nH]c(=O)oc5c4)[nH]3)N12 (stereo partly drawn) [Example 309, 6-(2-((3S)-7-(3-Chloro-2-fluoro-6-(1H-tetrazol-1-yl)phenyl)-5-oxo-1,2,3,5,8,8a-hexahydroindolizin-3-yl)-1H-imidazol-4-yl)benzo[d]oxazol-2(3H)-one]	–	0.0013	0.0019	–	–
Nc1ccn(-c2cc(-c3cnc([C@H]4CC[C@@H]5CC(c6c(-n7cnnn7)ccc(Cl)c6F)=CC(=O)N54)[nH]3)ccn2)n1 (single isomer, unassigned) [Example 72, (3R*,8aR)-3-(5-(2-(3-amino-1H-pyrazol-1-yl)pyridin-4-yl)-1H-imidazol-2-yl)-7-(3-chloro-2-fluoro-6-(1H-tetrazol-1-yl)phenyl)-2,3,8,8a-tetrahydroindolizin-5(1H)-one]	0.0065	0.0023	–	–	–
O=C1C=C(c2c(-n3cnnn3)ccc(Cl)c2F)C[C@H]2CC[C@H](c3nc(F)c(-c4ccnc(C5(O)CC5)c4)[nH]3)N12 [Example 179, (3R,8aR)-7-(3-chloro-2-fluoro-6-(1H-tetrazol-1-yl)phenyl)-3-(4-fluoro-5-(2-(1-hydroxycyclopropyl)pyridin-4-yl)-1H-imidazol-2-yl)-2,3,8,8a-tetrahydroindolizin-5(1H)-one]	–	0.0014	0.0005	–	–
C[C@H]1C[C@@H](c2ncc(-c3ccc(N)nc3F)[nH]2)N2C(=O)C=C(c3c(-n4cnnn4)ccc(Cl)c3F)C[C@@H]12 (single isomer, unassigned) [Example 346, (1*S,3S,8a*S)-3-(5-(6-Amino-2-fluoropyridin-3-yl)-1H-imidazol-2-yl)-7-(3-chloro-2-fluoro-6-(1H-tetrazol-1-yl)phenyl)-1-methyl-2,3,8,8a-tetrahydroindolizin-5(1H)-one]	–	0.0082	0.0013	–	–
O=C1C=C(c2c(-n3cnnn3)ccc(Cl)c2F)CC2CC[C@H](c3nc(F)c(-c4ccnc(N[C@H]5CCOC5)c4F)[nH]3)N12 (relative stereo) [Example 77, (3R*)-7-(3-chloro-2-fluoro-6-(1H-tetrazol-1-yl)phenyl)-3-(4-fluoro-5-(3-fluoro-2-(((S)-tetrahydrofuran-3-yl)amino)pyridin-4-yl)-1H-imidazol-2-yl)-2,3,8,8a-tetrahydroindolizin-5(1H)-one]	0.0013	0.005	–	–	–
CC(=O)N[C@H](C)c1ccc(-c2cnc([C@@H]3CCC4CC(c5c(-n6cnnn6)ccc(Cl)c5F)=CC(=O)N43)[nH]2)cc1 (stereo partly drawn) [Example 16, N-[(1R)-1-[4-[2-[(3S)-7-[3-Chloro-2-fluoro-6-(tetrazol-1-yl)phenyl]-5-oxo-2,3,8,8a-tetrahydro-1H-indolizin-3-yl]-1H-imidazol-5-yl]phenyl]ethyl]acetamide]	–	0.33	0.061	–	–
O=C1C=C(c2c(-n3cnnn3)ccc(Cl)c2F)CC2CC[C@@H](c3nc(-c4cnn[nH]4)c[nH]3)N12 (stereo partly drawn) [Example 332, (3S)-3-(4-(1H-1,2,3-Triazol-5-yl)-1H-imidazol-2-yl)-7-(3-chloro-2-fluoro-6-(1H-tetrazol-1-yl)phenyl)-2,3,8,8a-tetrahydroindolizin-5(1H)-one]	–	0.542	0.0858	–	–
NC(=O)c1cc(-c2nc([C@@H]3CCC4CC(c5c(-n6cnnn6)ccc(Cl)c5F)=CC(=O)N43)[nH]c2Cl)cs1 (stereo partly drawn) [Example 218, 4-(5-Chloro-2-((3S)-7-(3-chloro-2-fluoro-6-(1H-tetrazol-1-yl)phenyl)-5-oxo-1,2,3,5,8,8a-hexahydroindolizin-3-yl)-1H-imidazol-4-yl)thiophene-2-carboxamide]	–	0.0007	0.0003	–	–
O=C1C=C(c2c(-n3cnnn3)ccc(Cl)c2F)CC2CC[C@@H](c3ncc(-c4cn[nH]c4Cl)[nH]3)N12 (stereo partly drawn) [Example 366, (3S)-3-(5-(5-chloro-1H-pyrazol-4-yl)-1H-imidazol-2-yl)-7-(3-chloro-2-fluoro-6-(1H-tetrazol-1-yl)phenyl)-2,3,8,8a-tetrahydroindolizin-5(1H)-one]	–	0.019	0.0014	–	–
C[C@@H](Oc1nccc(-c2cnc([C@@H]3CC[C@@H]4CC(c5c(-n6cnnn6)ccc(Cl)c5F)=CC(=O)N43)[nH]2)c1F)c1ncco1 (single isomer, unassigned) [Example 141, (3*S,8a*R)-7-(3-chloro-2-fluoro-6-(1H-tetrazol-1-yl)phenyl)-3-(5-(3-fluoro-2-((*R)-1-(oxazol-2-yl)ethoxy)pyridin-4-yl)-1H-imidazol-2-yl)-2,3,8,8a-tetrahydroindolizin-5(1H)-one]	–	0.013	0.0108	–	–
O=C1Cc2cc(-c3cnc([C@@H]4CC[C@@H]5CC(c6c(-n7cnnn7)ccc(Cl)c6F)=CC(=O)N54)[nH]3)ccc2N1 (single isomer, unassigned) [Example 284]	–	0.0035	0.0013	–	–
Nc1ccc(-c2cnc([C@H]3CC[C@@H]4CC(c5c(-n6cnnn6)ccc(Cl)c5F)=CC(=O)N43)[nH]2)c(F)n1 [Example 356, (3R,8aR)-3-(5-(6-Amino-2-fluoropyridin-3-yl)-1H-imidazol-2-yl)-7-(3-chloro-2-fluoro-6-(1H-tetrazol-1-yl)phenyl)-2,3,8,8a-tetrahydroindolizin-5(1H)-one]	–	–	–	7.4	> 10
COC(=O)c1nccc(-c2cnc([C@@H]3CC[C@@H]4CC(c5c(-n6cnnn6)ccc(Cl)c5F)=CC(=O)N43)[nH]2)c1F [Example 52, Methyl 4 [2-[(3S,8aR)-7-[3-chloro-2-fluoro-6-(tetrazol-1-yl)phenyl]-5-oxo-2,3,8,8a-tetrahydro-1H-indolizin-3-yl]-1H-imidazol-5-yl]-3-fluoro-pyridine-2-carboxylate]	–	0.0095	0.0032	–	–
CC(C)C(=O)Nc1ccccc1-c1cnc([C@@H]2CC[C@@H]3CC(c4c(-n5cnnn5)ccc(Cl)c4F)=CC(=O)N32)[nH]1 (relative stereo) [Example 305, N-(2-(2-((3S,8aR*)-7-(3-Chloro-2-fluoro-6-(1H-tetrazol-1-yl)phenyl)-5-oxo-1,2,3,5,8,8a-hexahydroindolizin-3-yl)-1H-imidazol-4-yl)phenyl)isobutyramide]	0.0007	0.0017	–	–	–
O=C1C=C(c2c(-n3cnnn3)ccc(Cl)c2F)C[C@H]2CC[C@@H](c3ncc(-c4ccnc(-n5ccnn5)c4)[nH]3)N12 [Example 85, (3S,8aR)-7-[3-chloro-2-fluoro-6-(tetrazol-1-yl)phenyl]-3-[5-[2-(triazol-1-yl)-4-pyridyl]-1H-imidazol-2-yl]-2,3,8,8a-tetrahydro-1H-indolizin-5-one]	–	0.0089	0.0111	–	–
Cc1ccc(-n2cnnn2)c(C2=CC(=O)N3[C@H](CC[C@H]3c3ncc(-c4ccnc(CO)c4F)[nH]3)C2)c1F [Example 57, (3S,8aR)-3-(5-(3-fluoro-2-(hydroxymethyl)pyridin-4-yl)-1H-imidazol-2-yl)-7-(2-fluoro-3-methyl-6-(1H-tetrazol-1-yl)phenyl)-2,3,8,8a-tetrahydroindolizin-5(1H)-one]	–	0.106	0.0202	–	–
NC(=O)c1ccc(-c2c[nH]c([C@@H]3CC[C@H]4CC(c5c(-n6cnnn6)ccc(Cl)c5F)=CC(=O)N43)n2)cc1F [Example 198, 4-(2-((3S,8aS)-7-(3-chloro-2-fluoro-6-(1H-tetrazol-1-yl)phenyl)-5-oxo-1,2,3,5,8,8a-hexahydroindolizin-3-yl)-1H-imidazol-4-yl)-2-fluorobenzamide]	0.0305	0.0143	–	–	–
O=C1C=C(c2c(-n3cnnn3)ccc(Cl)c2F)C[C@H]2CC[C@@H](c3ncc(-c4ccnc5c4OCCO5)[nH]3)N12 [Example 361, (3S,8aR)-7-[3-chloro-2-fluoro-6-(tetrazol-1-yl)phenyl]-3-[5-(2,3-dihydro-[1,4]dioxino[2,3-b]pyridin-8-yl)-1H-imidazol-2-yl]-2,3,8,8a-tetrahydro-1H-indolizin-5-one]	–	0.0061	0.0007	–	–
O=C1C=C(c2c(-n3cnnn3)ccc(Cl)c2F)C[C@H]2CC[C@H](c3nc(Cl)c(-c4ccnc(C5(O)CC5)c4)[nH]3)N12 [Example 178, (3R,8aR)-7-(3-chloro-2-fluoro-6-(1H-tetrazol-1-yl)phenyl)-3-(4-chloro-5-(2-(1-hydroxycyclopropyl)pyridin-4-yl)-1H-imidazol-2-yl)-2,3,8,8a-tetrahydroindolizin-5(1H)-one]	–	0.0011	0.0004	–	–
